Reference: patent US12427212B2, “Nectin-4 binding miniproteins, conjugates and uses thereof” (Aktis Oncology, Inc., priority 2023, dated 2025)
Bridges are numbered along the chain shown (N, C = ends). [ ]: non-standard residue; d: D form. The star is where a group is joined. DOTA = O=C(O)CN1CCN(CC(=O)O)CCN(CC(=O)*)CCN(CC(=O)O)CC1; Biotin = O=C1N[C@H]2[C@H](CS[C@H]2CCCCC(=O)*)N1; Lys(Me3) = C[N+](C)(C)CCCC[C@H](N)C(=O)O; Arg(Me2s) = CN=C(NC)NCCC[C@H](N)C(=O)O; PEG4 = NCCOCCOCCOCCOCCC(=O)O

What was measured:
[1] = test system: Opossum kidney proximal tubule cells; test: Proximal tubule epithelial cell uptake assay; type: cell-based; conditions: Table 10A; mean percent uptake in opossum kidney cells, 1 h at 37° C., relative to control miniprotein C306
Protocol: FIG. 8 is a bar graph of the percent uptake of exemplary miniproteins tested at 20 µM in a proximal tubule epithelial cell assay vs 20 μM control peptide set at 100%. […]
Opossum kidney proximal tubule cells were plated in the upper chamber of 24-well transwell plates containing 600 μL of growth media in the lower chamber and were incubated overnight at 37° C., in 5% CO2. The following day, the media was changed, and cells were incubated an additional 24 h with orbital shaking at 146 RPM. Next, cells were washed and treated in duplicates with biotinylated exemplary miniproteins pre-complexed with streptavidin-AF647 for 1 h at 37° C., and 5% C02 with continuous orbital shaking. Following incubation, cells were washed three times with 1×PBS and lysed with RIPA buffer containing protease and phosphatase inhibitor cocktail and a universal nuclease for 30 minutes. Uptake was measured on 100 μL of lysates using a fluorimeter. Mean % uptake values of control miniprotein C306 in the presence of exemplary miniproteins are provided in TABLE 10A and summarized in FIG. 8.
Uptake of engineered Nectin-4 miniproteins with further modified lysine residues (C298-C304, as described in Example 4B) was evaluated. Percent uptake of these exemplary Nectin-4-targeting miniproteins and C251 were determined against a control miniprotein, C306, using opossum kidney proximal tubule cells as described in Example 18A. Percent uptake of C298, which has an unmodified lysine (K) at amino acid position 26 (along the length of the miniprotein sequence. SEQ ID NO: 162), was 37% in the presence of […]. All other miniproteins having a modified lysine (modified with one or more small alkyl groups of monomethyl, dimethyl, trimethyl, or isopropyl group) had (i) kidney uptake similar to that of C251 and (ii) reduced uptake as compared to C298, which has an unmodified lysine at position 26.

Nectin-4 [2] = molecular target: T1, Nectin-4 (Homo sapiens, UniProt Q96NY8); test: DELFIA competitive binding assay (Ki) against Eu-labeled C307 on HT-1376 cells
T1 sequence (Q96NY8 32-510): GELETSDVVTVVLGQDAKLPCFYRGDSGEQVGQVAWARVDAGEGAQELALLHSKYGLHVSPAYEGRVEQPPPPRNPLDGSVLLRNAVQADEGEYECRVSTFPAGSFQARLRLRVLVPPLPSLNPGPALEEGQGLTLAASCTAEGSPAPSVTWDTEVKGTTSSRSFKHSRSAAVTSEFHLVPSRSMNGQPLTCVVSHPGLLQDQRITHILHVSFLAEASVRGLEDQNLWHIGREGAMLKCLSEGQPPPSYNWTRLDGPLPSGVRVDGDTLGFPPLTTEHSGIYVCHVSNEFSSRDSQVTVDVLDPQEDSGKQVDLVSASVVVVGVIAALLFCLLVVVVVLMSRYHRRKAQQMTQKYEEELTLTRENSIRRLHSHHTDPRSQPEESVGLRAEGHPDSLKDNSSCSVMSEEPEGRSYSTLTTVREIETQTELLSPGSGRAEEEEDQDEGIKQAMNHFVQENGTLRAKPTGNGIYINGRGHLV
Protocol: A competition binding assay was utilized to determine the Ki for miniproteins bound to Nectin-4 expressed on the surface of cancer cells. […] Miniprotein incubations occurred for 90 min to reach binding equilibrium. […] After miniprotein incubations, the wells were washed to remove unbound ligand and treated according to manufacturer instructions for a DELFIA® (dissociation-enhanced lanthanide fluorescent immunoassay, Revvity Health Sciences). In brief, washed wells were incubated with 15 μL of 2 M HCl for 2 h at 37° C., after which 17 μL of 2 M NaOH and 30 μL of DELFIA® enhancement solution were added to each well and incubated for an additional 30 min. The remaining Eu reacted with the DELFIA® enhancer solution to generate fluorescence measured on the Envision instrument. Relative fluorescence units (RFUs) were measured as a function of test article concentration in order to calculate an IC50.
A whole cell binding assay was used to estimate the equilibrium binding affinity (KD) or binding inhibition constant (Ki) of miniprotein ligands to cells expressing a target of interest. Cells were dispensed into a 384-well plate and incubated at 37° C., in 5% CO2 overnight. The next day cells were gently washed once in assay buffer prior to addition of europium chelated ligand. […] For Ki determination, a single concentration (KD equivalent concentration) of europium-chelate miniprotein was added to each well followed immediately by the addition of unconjugated competing ligand over 12 different concentrations ranging from 100 times below and above expected Ki values as before. The plate was incubated for 1.5 h at room temperature to reach binding equilibrium. Cells were then washed three times at room temperature with 1×PBS followed by the addition of 2 M HCl and incubated for two h at 37° C. Following this step, 2 M NaOH and fluorescent inducer solution were added to each well and incubated for 30 minutes at room temperature according to the manufacturer's protocol (Perkin-ELMER DELFIA assay). Plates were read on an Envision plate reader and a curve-fitting model was applied to estimate KD and Ki values using GraphPad Prism software.
Engineered Nectin-4 miniproteins with further modified lysine residues (C298-C304; as described in Example 4B) were evaluated for their ability to bind to Nectin-4.

Nectin-4 [3] = molecular target: T1, Nectin-4; test: Surface plasmon resonance (Biacore), 1:1 binding model, human Nectin-4; conditions: SPR, 25° C.
Protocol: (§1) Peptide binding affinity to the target protein was measured by SPR using an SPR machine, such as a Biacore T200 instrument. The target protein was covalently coupled to a Biacore chip surface using free amine-coupling chemistry (NHS/EDC) and all uncoupled sites were blocked with ethanolamine. Free peptides were flowed over the target protein surface in increasing concentrations to measure association (Ka, 1/Ms^−1)) and dissociation (Kd, s^−1) to calculate the dissociation equilibrium constant (KD) using an appropriate binding model (see, e.g., Nikolas Stroth, J Biol Methods. 2016; 3 (1)).
(§2) In FIGS. 1A, 1B, 2A, and 2B, lines on graphs are labeled from top to bottom, beginning with letter “a.” and the corresponding concentration is noted to the right of the figure.
(§3) (i.e., a conjugate comprising a Nectin-4 peptide of SEQ ID NO: 5 and arranged having an N-terminus comprising ^138La-DOTA-PEG4 and a C-terminus comprising OH). […] In both FIGS. 3A and 3B, lines on graphs were labeled from top to bottom, beginning with letter a, and the corresponding concentration was noted to the right of the figure.

mouse Nectin-4 = molecular target: T2, mouse Nectin-4 (Mus musculus, UniProt Q8R007); test: Surface plasmon resonance (Biacore), 1:1 binding model, mouse Nectin-4; conditions: SPR, 25° C.
T2 sequence (Q8R007 31-508): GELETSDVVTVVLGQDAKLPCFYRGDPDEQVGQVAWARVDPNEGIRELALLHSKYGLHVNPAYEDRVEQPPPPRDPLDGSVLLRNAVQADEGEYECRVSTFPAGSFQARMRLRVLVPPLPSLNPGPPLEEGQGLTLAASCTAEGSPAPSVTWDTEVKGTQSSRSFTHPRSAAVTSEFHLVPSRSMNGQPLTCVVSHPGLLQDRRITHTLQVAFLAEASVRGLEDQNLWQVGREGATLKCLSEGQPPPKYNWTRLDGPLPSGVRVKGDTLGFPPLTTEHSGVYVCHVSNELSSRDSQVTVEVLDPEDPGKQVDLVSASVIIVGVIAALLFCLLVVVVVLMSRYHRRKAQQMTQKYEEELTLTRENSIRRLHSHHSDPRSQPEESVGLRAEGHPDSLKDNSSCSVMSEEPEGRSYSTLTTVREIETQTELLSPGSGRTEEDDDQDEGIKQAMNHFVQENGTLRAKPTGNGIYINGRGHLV
Protocol: as §1, §2, §3

[4] = test system: un-transfected HEK293 cells; test: Background binding to un-transfected HEK293 cells (cell microarray suitability); type: cell-based, human; conditions: biotin-labeled molecules
Protocol: To evaluate potential off-target binding, six biotin-labeled molecules were tested in a cell microarray platform having 6,416 different human proteins spanning diverse functions and subcellular locations.

Compound: {Biotin-PEG4}-CEYDEQFFTALARLRGGDICEYIQA[Arg(Me2s)]FQYLPGLCIEEILDNLGCS-OH (disulfide 1-34, 20-44) [Compound C267]
- % Uptake of C306 (Control) [1]: 0.800%
- Ki (Nectin-4 [2]): 0.76 nM

Compound: {Biotin-PEG4}-CEYDEEFFTALARLRGADICQYIQA[Lys(Me3)]FQYLPALCIEEILDNLGCS-OH (disulfide 1-34, 20-44) [Compound C252]
- % Uptake of C306 (Control) [1]: 1.24%
- Ki (Nectin-4 [2]): 0.76 nM

Compound: {Biotin-PEG4}-CDYDEQFFTALKRLRGGDICEYIQA[Lys(Me3)]FQYLPGECIEEILDNLGCS-OH (disulfide 1-34, 20-44) [Compound C255]
- % Uptake of C306 (Control) [1]: 14.1%
- Ki (Nectin-4 [2]): 0.66 nM

Compound: Ac-CEYDEEFFAGLKRLRGGDICYYIKKKFDKVPDLCIEEILDKLGC-OH (disulfide 1-34, 20-44) [Compound C9]
- Kd (Nectin-4 [3]): 7.5 nM
- kd for human Nectin-4 (Nectin-4 [3]): 0.02271 s⁻¹
- Kd (mouse Nectin-4): 7.82 nM
- kd for mouse Nectin-4 (mouse Nectin-4): 0.02134 s⁻¹

Compound: {DOTA-PEG4}-CEYDEEFFAGLKRLRGGDICYYIKKKFDKVPDLCIEEILDKLGC-OH (disulfide 1-34, 20-44) [Compound C91]
- kd for human Nectin-4 (Nectin-4 [3]): 0.02966 s⁻¹
- kd for mouse Nectin-4 (mouse Nectin-4): 0.02817 s⁻¹

Compound: {Biotin-PEG4}-CEYDEQFFTALARLRGADICEYIQARFQYLPGLCIEEILDNLGCS-OH (disulfide 1-34, 20-44) [Compound C280]
- % Uptake of C306 (Control) [1]: 1.56%
- Ki (Nectin-4 [2]): 0.54 nM

Compound: CC[C@H](C)[C@@H]1NC(=O)[C@H](Cc2ccc(O)cc2)NC(=O)[C@H](CCC(=O)O)NC(=O)[C@@H]2CSSC[C@@H](C(=O)N[C@@H](CO)C(=O)O)NC(=O)CNC(=O)[C@H](CC(C)C)NC(=O)[C@H](CC(N)=O)NC(=O)[C@H](CC(=O)O)NC(=O)[C@H](CC(C)C)NC(=O)[C@H]([C@@H](C)CC)NC(=O)[C@H](CCC(=O)O)NC(=O)[C@H](CCC(=O)O)NC(=O)[C@H]([C@@H](C)CC)NC(=O)[C@H](CSSC[C@H](NC(=O)CCOCCOCCOCCOCCNC(=O)CCCC[C@@H]3SC[C@@H]4NC(=O)N[C@@H]43)C(=O)N[C@@H](CC(=O)O)C(=O)N[C@@H](Cc3ccc(O)cc3)C(=O)N[C@@H](CC(=O)O)C(=O)N[C@@H](CCC(=O)O)C(=O)N[C@@H](CCC(N)=O)C(=O)N[C@@H](Cc3ccccc3)C(=O)N[C@@H](Cc3ccccc3)C(=O)N[C@@H]([C@@H](C)O)C(=O)N[C@@H](C)C(=O)N[C@@H](CC(C)C)C(=O)N[C@@H](CCCCN)C(=O)N[C@@H](CCCNC(=N)N)C(=O)N[C@@H](CC(C)C)C(=O)N[C@@H](CCCNC(=N)N)C(=O)NCC(=O)N[C@@H](C)C(=O)N[C@@H](CC(=O)O)C(=O)N[C@@H]([C@@H](C)CC)C(=O)N2)NC(=O)[C@H](CCC(=O)O)NC(=O)CNC(=O)[C@@H]2CCCN2C(=O)[C@H](CC(C)C)NC(=O)[C@H](Cc2ccc(O)cc2)NC(=O)[C@H](CCC(N)=O)NC(=O)[C@H](Cc2ccccc2)NC(=O)[C@H](CO)NC(=O)[C@H](C)NC(=O)[C@H](CCC(N)=O)NC1=O [Compound C208]
- Background binding to un-transfected HEK293 cells [4]: low-background binding

Compound: CC[C@H](C)[C@@H]1NC(=O)[C@H](Cc2ccc(O)cc2)NC(=O)[C@H](CC(=O)O)NC(=O)[C@@H]2CSSC[C@@H](C(=O)N[C@@H](CO)C(=O)O)NC(=O)CNC(=O)[C@H](CC(C)C)NC(=O)[C@H](CC(N)=O)NC(=O)[C@H](CC(=O)O)NC(=O)[C@H](CC(C)C)NC(=O)[C@H]([C@@H](C)CC)NC(=O)[C@H](CCC(=O)O)NC(=O)[C@H](CCC(=O)O)NC(=O)[C@H]([C@@H](C)CC)NC(=O)[C@H](CSSC[C@H](NC(=O)CCOCCOCCOCCOCCNC(=O)CCCC[C@@H]3SC[C@@H]4NC(=O)N[C@@H]43)C(=O)N[C@@H](CCC(=O)O)C(=O)N[C@@H](Cc3ccc(O)cc3)C(=O)N[C@@H](CC(=O)O)C(=O)N[C@@H](CCC(=O)O)C(=O)N[C@@H](CCC(N)=O)C(=O)N[C@@H](Cc3ccccc3)C(=O)N[C@@H](Cc3ccccc3)C(=O)N[C@@H]([C@@H](C)O)C(=O)N[C@@H](C)C(=O)N[C@@H](CC(C)C)C(=O)N[C@@H](CCCCN)C(=O)N[C@@H](CCCNC(=N)N)C(=O)N[C@@H](CC(C)C)C(=O)N[C@@H](CCCNC(=N)N)C(=O)NCC(=O)N[C@@H](CC(=O)O)C(=O)N[C@@H](CC(=O)O)C(=O)N[C@@H]([C@@H](C)CC)C(=O)N2)NC(=O)[C@H](CC(C)C)NC(=O)CNC(=O)[C@@H]2CCCN2C(=O)[C@H](CC(C)C)NC(=O)[C@H](Cc2ccc(O)cc2)NC(=O)[C@H](CCC(N)=O)NC(=O)[C@H](Cc2ccccc2)NC(=O)[C@H](CO)NC(=O)[C@H](C)NC(=O)[C@H](CCC(N)=O)NC1=O [Compound C197]
- Background binding to un-transfected HEK293 cells [4]: low-background binding

Compound: {DOTA-PEG4}-CEYDEEFFAGLKRLRGGDICYYIKKKFDKVPDLCIEEILDKLGC-OH (disulfide 1-34, 20-44) [Compound C12]
- kd for human Nectin-4 (Nectin-4 [3]): 0.01697 s⁻¹
- kd for mouse Nectin-4 (mouse Nectin-4): 0.02625 s⁻¹
